What was measured:
[1] = system: MDA-MB-453 cells; experiment: CellTiter-Glo 2.0 viability assay, 10 days; assay type: cell-based, human; conditions: MDA-MB-453, 10 days of continuous exposure
[2] = cited from earlier work
[3] = system: CBP/p300 over BRD4; conditions: selective CBP/p300 binder; cited from earlier work

SMILES	times less active than FT-6876 at inhibiting proliferation [1] [times]	microsomal stability [2]	selectivity over BRD4 and other BRD and BET family members [3] [fold]
CNC(=O)c1ccc(N2C(=S)N(c3ccc(C#N)c(C(F)(F)F)c3)C(=O)C2(C)C)cc1F [Enzalutamide, enzalutamide]	45		
COc1ccc(CCc2nc3cc(-c4c(C)noc4C)ccc3n2C[C@H](C)N2CCOCC2)cc1Cl [SGC-CBP30]		poor microsomal stability	40

— paper PMC10042772 (Targeted Oncology, 2023)
